Measurements reported in patent US20080171760A1, “SPIROPIPERIDINE GLYCINAMIDE DERIVATIVES” (priority 2007, published 2008).

biological target: T1, human V1a receptor (Homo sapiens, UniProt P37288); test: human V1a receptor binding study (3H-Vasopressin, SPA beads); conditions: membranes of HEK293 cells transiently transfected with human V1a receptor, Ki calculated using the Cheng-Prussoff equation, read-out: pKi hV1a (converted)
T1 construct: expressed in transfected cells; host or cells: HEK293 cells, transiently transfected; cell membranes
Experimental: The human V1a receptor was cloned by RT-PCR from total human liver RNA. The coding sequence was subcloned in an expression vector after sequencing to confirm the identity of the amplified sequence. […] Cell membranes were prepared from HEK293 cells transiently transfected with the expression vector and grown in 20 liter fermenters with the following protocol.
50 g of cells were resuspended in 30 ml freshly prepared ice cold Lysis buffer (50 mM HEPES, 1 mM EDTA, 10 mM MgCl2 adjusted to pH=7.4+complete cocktail of protease inhibitor (Roche Diagnostics)), homogenized with Polytron for 1 min, and sonicated on ice for 2×2 minutes at 80% intensity (Vibracell sonicator). The preparation was centrifuged 20 min at 500 g at 4° C., the pellet was discarded and the supernatant centrifuged 1 hour at 43,000 g at 4° C. (19,000 rpm). The pellet was resuspended in 12.5 ml Lysis buffer+12.5 ml Sucrose 20% and homogenized using a Polytron for 1-2 min. The protein concentration was determined by the Bradford method and aliquots are stored at −80° C. until use. For binding studies 60 mg Yttrium silicate SPA beads (Amersham) were mixed with an aliquot of membrane in binding buffer (50 mM Tris, 120 mM NaCl, 5 mM KCl, 2 mM CaCl2, 10 mM MgCl2) for 15 minutes with mixing. 50 ul of bead/membrane mixture was then added to each well of a 96 well plate, followed by 50 ul of 4 nM 3H-Vasopressin (American Radiolabeled Chemicals). For total binding measurement 100 ul of binding buffer were added to the respective wells, for non-specific binding 100 ul of 8.4 mM cold vasopressin and for compound testing 100 ul of a serial dilution of each compound in 2% DMSO. The plate was incubated 1 h at room temperature, centrifuged 1 min at 1000 g and counted on a Packard Top-Count. Non-specific binding counts were subtracted from each well and data was normalized to the maximum specific binding set at 100%. To calculate an IC 50 the curve was fitted using a non-linear regression model (XLfit) and the Ki is calculated using the Cheng-Prussoff equation.

T1 sequence (P37288 whole entry): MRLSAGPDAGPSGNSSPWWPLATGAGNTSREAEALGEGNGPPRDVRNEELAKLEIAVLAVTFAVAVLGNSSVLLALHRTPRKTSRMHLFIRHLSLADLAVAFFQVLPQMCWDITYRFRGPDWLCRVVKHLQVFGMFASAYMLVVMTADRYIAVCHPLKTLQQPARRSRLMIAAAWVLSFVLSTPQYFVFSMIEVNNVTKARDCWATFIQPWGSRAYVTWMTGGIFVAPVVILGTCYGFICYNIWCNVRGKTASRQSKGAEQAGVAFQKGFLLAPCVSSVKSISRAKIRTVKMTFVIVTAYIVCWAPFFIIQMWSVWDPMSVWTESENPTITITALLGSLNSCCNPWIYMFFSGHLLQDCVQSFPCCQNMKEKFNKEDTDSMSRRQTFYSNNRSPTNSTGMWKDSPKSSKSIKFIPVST

Going from `O=C(CNC(c1ccc(F)cc1)c1cccs1)N1CCC2(CC1)OCc1ccccc12` (racemic) [Example 29, (RS)—N-[(4-Fluorophenyl)(2-thienyl)methyl]-2-oxo-2-(1′H,3H-spiro[2-benzofuran-1,4′-piperidin]-1′-yl)ethanamine] to `O=C(CNC(c1ccccc1)c1cccs1)N1CCC2(CC1)OCc1ccccc12` (racemic) [Example 20, (RS)-2-Oxo-N-[phenyl(2-thienyl)methyl]-2-(1′H,3H-spiro[2-benzofuran-1,4′-piperidin]-1′-yl)ethanamine], the Ki falls from 15.8 nM to 9.12 nM (1.7-fold).

`O=C(CNC(c1ccccc1)c1ccccc1)N1CCC2(CC1)OCc1ccccc12` [Example 6, N-(Diphenylmethyl)-2-oxo-2-(1′H,3H-spiro[2-benzofuran-1,4′-piperidin]-1′-yl)ethanamine] and `O=C(CNC(c1ccccc1)c1cccc(Cl)c1)N1CCC2(CC1)OCc1ccccc12` (racemic) [Example 8, (RS)—N-[(3-Chlorophenyl)(phenyl)methyl]-2-oxo-2-(1′H,3H-spiro[2-benzofuran-1,4′-piperidin]-1′-yl)ethanamine] are within 1.5-fold of each other in Ki: 11.7 nM for the first, 14.8 nM for the second.

First: O=C(CN[C@@H](C(=O)N1CC(O)C1)c1ccccc1)N1CCC2(CC1)OCc1ccccc12 [Example 71, 1-[(2R)-2-{[2-Oxo-2-(1′H,3H-spiro[2-benzofuran-1,4′-piperidin]-1′-yl)ethyl]amino}-2-phenylacetyl]azetidin-3-ol]
Second: O=C(Nc1ccc(Cl)cc1)[C@H](NCC(=O)N1CCC2(CC1)OCc1ccccc12)c1ccccc1 [Example 31, (2R)—N-(4-Chlorophenyl)-2-{[2-oxo-2-(1′H,3H-spiro[2-benzofuran-1,4′-piperidin]-1′-yl)ethyl]amino}-2-phenylacetamide]
The Ki of the first is 1.9-fold higher: 79.4 nM for the first, 42.7 nM for the second.

`O=C(CNC(c1ccccc1)c1ccc(C(F)(F)F)cc1)N1CCC2(CC1)OCc1ccccc12` (racemic) [Example 18, (RS)-2-Oxo-N-{phenyl[4-(trifluoromethyl)phenyl]methyl}-2-(1′H,3H-spiro[2-benzofuran-1,4′-piperidin]-1′-yl)ethanamine] and `O=C(CNC(c1ccccc1)c1cccc(C(F)(F)F)c1)N1CCC2(CC1)OCc1ccccc12` (racemic) [Example 12, (RS)-2-Oxo-N-{phenyl[3-(trifluoromethyl)phenyl]methyl}-2-(1′H,3H-spiro[2-benzofuran-1,4′-piperidin]-1′-yl)ethanamine] are within 1.5-fold of each other in Ki: 20.9 nM for the first, 30.2 nM for the second.

`C[C@](O)(c1ccccn1)[C@H](NCC(=O)N1CCC2(CC1)OCc1ccccc12)c1ccc(Cl)cc1` (racemic) [Example 49, (1RS,2RS)-1-(4-Chlorophenyl)-1-{[2-oxo-2-(1′H,3H-spiro[2-benzofuran-1,4′-piperidin]-1′-yl)ethyl]amino}-2-pyridin-2-yl-propan-2-ol] and `CC(O)(c1ccncc1)C(NCC(=O)N1CCC2(CC1)OCc1ccccc12)c1ccc(Cl)cc1` (stereo not shown) [Example 52, 1-(4-Chlorophenyl)-1-{[2-oxo-2-(1′H,3H-spiro[2-benzofuran-1,4-piperidin]-1′-yl)ethyl]amino}-2-pyridin-4-ylpropan-2-ol] are within 1.5-fold of each other in Ki: 18.6 nM for the first, 26.3 nM for the second.

Going from `O=C1OC2(CCN(C(=O)CNC(c3ccccc3)c3ccccc3)CC2)c2ccccc21` [Example 92, 1′-[N-(Diphenylmethyl)glycyl]-3H-spiro[2-benzofuran-1,4′-piperidin]-3-one] to `Cc1cccc(C(NCC(=O)N2CCC3(CC2)OCc2ccccc23)c2ccccc2)c1` (racemic) [Example 34, (RS)—N-[(3-Methylphenyl)(phenyl)methyl]-2-oxo-2-(1′H,3H-spiro[2-benzofuran-1,4′-piperidin]-1′-yl)ethanamine], the Ki falls from 42.7 nM to 18.6 nM (2.3-fold).

Going from `O=C(CNC(c1ccccc1)c1ccc(Cl)cc1)N1CCC2(CC1)OCc1ccccc12` (racemic) [Example 2, (RS)—N-[(4-Chlorophenyl)(phenyl)methyl]-2-oxo-2-(1′H,3H-spiro[2-benzofuran-1,4′-piperidin]-1′-yl)ethanamine] to `O=C(CN[C@@H](c1ccccc1)c1ccc(Cl)cc1)N1CCC2(CC1)OCc1ccccc12` (single isomer, unassigned) [Example 4, N-[(+)-(4-chlorophenyl)(phenyl)methyl]-2-oxo-2-(1′H,3H-spiro[2-benzofuran-1,4′-piperidin]-1′-yl)ethanamine], the Ki rises from 9.12 nM to 20.4 nM (2.2-fold).

`O=C(CNC(c1ccccc1)c1ccc(Cl)c(Cl)c1)N1CCC2(CC1)OCc1ccccc12` (racemic) [Example 9, (RS)—N-[(3,4-Dichlorophenyl)(phenyl)methyl]-2-oxo-2-(1′H,3H-spiro[2-benzofuran-1,4′-piperidin]-1′-yl)ethanamine] and `O=C(CNC(c1ccccc1)c1cc(Cl)ccc1O)N1CCC2(CC1)OCc1ccccc12` (racemic) [Example 37, (RS)-4-Chloro-2-[{[2-oxo-2-(1′H,3H-spiro[2-benzofuran-1,4′-piperidin]-1′yl)ethyl]amino}(phenyl)methyl]phenol] are the same in Ki: 14.5 nM for the first, 14.5 nM for the second.

`Cc1n[nH]c(C)c1C(NCC(=O)N1CCC2(CC1)OCc1ccccc12)c1ccccc1` (racemic) [Example 30, (RS)—N-[(3,5-Dimethyl-1H-pyrazol-4-yl)(phenyl)methyl]-2-oxo-2-(1′H,3H-spiro[2-benzofuran-1,4′-piperidin]-1′-yl)ethanamine] and `O=C(CNC(c1ccccc1)c1ccccn1)N1CCC2(CC1)OCc1ccccc12` (racemic) [Example 27, (RS)-2-Oxo-N-[phenyl(pyridin-2-yl)methyl]-2-(1′H,3H-spiro[2-benzofuran-1,4′-piperidin]-1′-yl)ethanamine] are within 1.5-fold of each other in Ki: 23.4 nM for the first, 18.2 nM for the second.

Compared with `O=C(CNC(c1ccc(F)cc1)c1cccc(C(F)(F)F)c1)N1CCC2(CC1)OCc1ccccc12` (racemic) [Example 13, (RS)—N-{(4-Fluorophenyl)[3-(trifluoromethyl)phenyl]methyl}-2-oxo-2-(1′H,3H-spiro[2-benzofuran-1,4′-piperidin]-1′-yl)ethanamine], `O=C(CNC(c1cccc(Cl)c1)c1ncco1)N1CCC2(CC1)OCc1ccccc12` (racemic) [Example 68, (RS)—N-[(3-Chlorophenyl) (1,3-oxazol-2-yl)methyl]-2-oxo-2-(1′H,3H-spiro [2-benzofuran-1,4′-piperidin]-1′-yl)ethanamine] is 3.5-fold lower in Ki: 29.5 nM for the first, 8.51 nM for the second.

`O=C(CN[C@H](c1ccc(Cl)cc1)[C@@H](O)c1ccc(N2CCOCC2)cc1)N1CCC2(CC1)OCc1ccccc12` [Example 46] and `CN(CC(=O)N1CCC2(CC1)OCc1ccccc12)C(c1ccccc1)c1ccccc1` [Example 93, N-(Diphenylmethyl)-N-methyl-2-oxo-2-(1′H,3H-spiro[2-benzofuran-1,4′-piperidin]-1′-yl)ethanamine] are within 1.5-fold of each other in Ki: 24 nM for the first, 28.2 nM for the second.
